Experimental data: patent US4990499A, “Anti-herpes simplex virus activity of 5-alkoxymethyl-2'-deoxycytidimes and their 5-monophosphates” (priority 1989, dated 1991)
“Also recorded” adds a separate entry of the source.

Key:
HSV-1, KOS [1] = assay: HSV-1 KOS infectivity (virus yield) in Vero cells after removal of drugs; assay type: cell-based, Herpes simplex virus type 1; conditions: up to 2120 μM (highest concentration tested)
Method: Vero cells were infected with HSV-1, KOS strain and then samples of the infected cells were treated with MMdCyd in various quantities and with MMdCyd in various quantities together with 530 μM of H4 dUrd. Cells were washed twice with 0.4 ml of MEM to remove residual drug, overlaid with growth medium and incubated for 72 h. The virus was harvested by two cycles of freezing and thawing. The culture fluid from each treatment was pooled and assayed for virus yield.
^b H4 dUrd 530 μM (125 μg/ml) was added along with MMdCyd.

HSV-1, KOS [2] = assay: HSV-1 KOS infectivity in Vero cells prior to washing of drugs; assay type: cell-based, Herpes simplex virus type 1; conditions: at less than 2120 μM (500 μg/ml)
Method: Vero cells were infected with HSV-1, KOS strain and then treated with MMdCyd in various quantities, and also with MMdCyd in various quantities together with a constant amount of H4 dUrd. The virus infectivity was observed and the results are given in Table 5 and are shown graphically in FIG. 3.
^a Virus infectivity was scored using following parameters: rounding
of cells, plaque formation and loss of monolayer structure.
^b Concentration of H4 dUrd used was 530 μM (125 μg/ml).

in vitro = conditions: monkey, vero cells
Method: The survival and viability of Vero cells grown in the presence of 2'-deoxyguanosine, H4 dUrd and deoxyguanosine+H4 dUrd was determined.

[3] = system: Deoxynucleoside Triphosphate (dNTP) Pools in Vero Cells Infected with Herpes Simplex Virus Type 1; assay: Deoxynucleoside triphosphate (dNTP) pools in HSV-1 infected Vero cells; assay type: cell-based
Method: Example 9 was repeated, except that the Vero cells subjected to the treatment had all been infected with HSV-1 KOS strain prior to the treatment.
^a Cells were infected with 10 PFU/cell of HSV1 KOS strain for one
hour. Treatments were given for seven hours.
^a Cells were infected with 10 PFU/cell of HSV1, KOS strain after
^b H4 dUrd in MEM was added immediately after adsorption and
^c H4 dUrd in MEM was added immediately after adsorption and
(§1) Vero cells and HSV-infected Vero cells were treated with dGUO and dGUO and H4 dUrd. The cells were then assayed for the presence of deoxynucleoside triphosphates. Untreated Vero cells were also assayed for the presence of deoxynucleoside triphophate to provide a control.
^c Cells were infected with 10 PFU/cell of HSV1 strain KOS for one

[4] = system: Deoxynucleoside Triphosphate (dNTP) Pools in Uninfected Vero Cells; assay: Deoxynucleoside triphosphate (dNTP) pools in uninfected (mock-infected) Vero cells; assay type: cell-based; conditions: Table 7, uninfected Vero cells, treatment 7 hours, ± S.E.
Method: Vero cells were treated with MMdCyd, H4 dUrd and MMdCyd+H4 dUrd. The cells were then assayed for the presence of deoxynucleoside triphosphates. Untreated Vero cells were also assayed for the presence of deoxynucleoside triphosphates, to provide a control.
^a Cells were mock infected for one hour. Different treatments were
^b Values are means of at least two assays of triplicate cell
as §1
Vero cells were treated with N-methyl-MMdCyd. The cells were then assayed for dNTP pools.

HSV-1 DNA Polymerase [5] = target: T1, HSV-1 DNA Polymerase (Human herpesvirus 1, UniProt P04293); assay: Kinetic analysis / inhibition of HSV-1 DNA polymerase; assay type: biochemical
T1 sequence (P04293 whole entry): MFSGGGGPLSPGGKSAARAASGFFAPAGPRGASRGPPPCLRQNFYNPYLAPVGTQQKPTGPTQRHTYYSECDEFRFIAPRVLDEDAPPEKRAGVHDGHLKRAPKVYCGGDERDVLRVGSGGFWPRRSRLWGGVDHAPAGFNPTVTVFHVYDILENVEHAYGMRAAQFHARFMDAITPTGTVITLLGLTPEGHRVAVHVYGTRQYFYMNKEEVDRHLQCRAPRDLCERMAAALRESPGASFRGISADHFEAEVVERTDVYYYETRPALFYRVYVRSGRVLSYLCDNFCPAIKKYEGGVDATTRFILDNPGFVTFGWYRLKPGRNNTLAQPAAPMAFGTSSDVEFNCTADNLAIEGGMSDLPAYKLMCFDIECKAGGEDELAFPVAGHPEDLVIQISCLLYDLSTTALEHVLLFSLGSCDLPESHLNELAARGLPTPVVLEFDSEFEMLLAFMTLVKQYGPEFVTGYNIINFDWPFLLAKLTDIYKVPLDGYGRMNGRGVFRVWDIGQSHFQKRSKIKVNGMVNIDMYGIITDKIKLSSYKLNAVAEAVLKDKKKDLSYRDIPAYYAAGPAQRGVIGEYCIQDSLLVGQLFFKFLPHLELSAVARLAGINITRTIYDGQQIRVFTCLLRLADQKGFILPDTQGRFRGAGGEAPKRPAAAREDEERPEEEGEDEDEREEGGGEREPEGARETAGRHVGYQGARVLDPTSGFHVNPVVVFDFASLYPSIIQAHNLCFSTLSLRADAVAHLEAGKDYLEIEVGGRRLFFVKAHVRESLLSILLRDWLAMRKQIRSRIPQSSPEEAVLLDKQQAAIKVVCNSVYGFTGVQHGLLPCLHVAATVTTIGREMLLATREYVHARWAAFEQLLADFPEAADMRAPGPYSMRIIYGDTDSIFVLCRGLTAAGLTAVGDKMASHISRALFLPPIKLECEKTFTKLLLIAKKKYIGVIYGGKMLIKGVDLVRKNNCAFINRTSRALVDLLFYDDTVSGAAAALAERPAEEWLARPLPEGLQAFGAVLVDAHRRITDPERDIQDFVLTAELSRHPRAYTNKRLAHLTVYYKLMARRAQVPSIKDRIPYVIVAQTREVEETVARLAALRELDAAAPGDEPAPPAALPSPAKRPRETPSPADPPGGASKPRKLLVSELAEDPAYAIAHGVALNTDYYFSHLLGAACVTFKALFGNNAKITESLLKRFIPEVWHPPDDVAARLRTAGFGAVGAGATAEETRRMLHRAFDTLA
Method: (§2) The inhibition of HSV-1 and human DNA polymerase alpha by MMdCTP was studied and the results shown graphically in FIG. 16. Assay conditions were specific for each enzyme and each assay was performed in triplicate.

HSV-1 DNA Polymerase [6] = target: T1, HSV-1 DNA Polymerase; assay: In vitro DNA synthesis by HSV-1 DNA polymerase ([3H]dAMP incorporation); assay type: biochemical, Herpes simplex virus type 1
Method: The relative in vitro DNA synthesis by HSV-1 DNA Polymerase using dCTP or MMdCTP as the rate limiting substrate was determined. The synthesis was followed by assaying an incorporation of tritium labelled dAMP.
+ unlabelled dNTP concentration 10 μM
++ Radio labelled [^3 H]dAMP conc 0.2 μM
*One hundred percent activity represents 27355 cpm of [^3 H]dAMP
(§3) The number of pmoles of [^3 H] dAMP incorporated into control samples (`O`MMdCTP) was subtracted from pmoles of test samples. Other nucleotides,dATP, dTTP and dGTP were in excess (10 μm). Each assay was performed in triplicate.
(§4) ^+ unlabeled dNTP concentration (10 μM).
(§5) ^++ 0.2 μM of [^3 H]dATP was used in each assay.

[7] = target: T2, human DNA polymerase alpha (Homo sapiens, UniProt P09884); assay: In vitro DNA synthesis by human DNA polymerase alpha ([3H]dAMP incorporation); assay type: biochemical; conditions: for incorporation into DNA / substrate: Human α-DNA polymerase
T2 sequence (P09884 1-1462): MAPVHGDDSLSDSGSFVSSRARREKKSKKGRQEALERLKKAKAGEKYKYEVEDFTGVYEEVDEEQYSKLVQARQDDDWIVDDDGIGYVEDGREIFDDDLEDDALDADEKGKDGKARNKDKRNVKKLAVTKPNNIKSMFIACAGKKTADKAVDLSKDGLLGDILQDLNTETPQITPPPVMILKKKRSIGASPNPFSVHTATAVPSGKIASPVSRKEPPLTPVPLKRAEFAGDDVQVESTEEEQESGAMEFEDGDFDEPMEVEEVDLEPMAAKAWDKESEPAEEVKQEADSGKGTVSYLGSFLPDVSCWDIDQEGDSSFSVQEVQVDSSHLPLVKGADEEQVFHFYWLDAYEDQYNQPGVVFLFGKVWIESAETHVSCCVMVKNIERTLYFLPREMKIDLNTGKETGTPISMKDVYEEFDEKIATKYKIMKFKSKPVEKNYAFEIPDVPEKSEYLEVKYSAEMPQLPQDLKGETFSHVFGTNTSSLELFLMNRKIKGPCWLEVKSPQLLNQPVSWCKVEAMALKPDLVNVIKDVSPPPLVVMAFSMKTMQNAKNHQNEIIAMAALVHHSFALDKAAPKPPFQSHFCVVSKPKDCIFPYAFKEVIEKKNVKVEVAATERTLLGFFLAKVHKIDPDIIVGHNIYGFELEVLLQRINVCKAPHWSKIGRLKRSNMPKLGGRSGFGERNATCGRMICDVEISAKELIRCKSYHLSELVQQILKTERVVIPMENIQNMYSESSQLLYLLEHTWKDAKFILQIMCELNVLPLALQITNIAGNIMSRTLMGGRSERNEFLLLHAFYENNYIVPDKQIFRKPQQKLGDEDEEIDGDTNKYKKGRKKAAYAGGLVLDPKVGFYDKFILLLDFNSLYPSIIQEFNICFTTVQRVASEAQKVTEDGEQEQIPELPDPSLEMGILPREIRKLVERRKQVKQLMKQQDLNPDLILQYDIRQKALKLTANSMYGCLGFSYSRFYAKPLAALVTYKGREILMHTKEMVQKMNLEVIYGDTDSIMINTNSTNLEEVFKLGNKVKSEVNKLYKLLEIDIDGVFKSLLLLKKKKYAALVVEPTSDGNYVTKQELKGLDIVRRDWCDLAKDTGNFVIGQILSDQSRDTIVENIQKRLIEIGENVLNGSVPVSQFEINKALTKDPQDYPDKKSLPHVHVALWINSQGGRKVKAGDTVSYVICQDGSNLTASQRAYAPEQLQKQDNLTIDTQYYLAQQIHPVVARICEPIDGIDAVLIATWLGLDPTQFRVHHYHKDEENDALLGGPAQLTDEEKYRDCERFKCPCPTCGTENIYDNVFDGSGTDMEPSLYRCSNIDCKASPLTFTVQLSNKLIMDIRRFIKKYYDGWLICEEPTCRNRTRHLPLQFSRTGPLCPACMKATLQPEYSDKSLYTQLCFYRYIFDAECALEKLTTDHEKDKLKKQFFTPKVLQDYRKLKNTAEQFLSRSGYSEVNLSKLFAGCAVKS
Method: A comparison of in vitro DNA synthesis by viral and cellular DNA polymerases with MMdCTP as an alternative substrate. The results are shown graphically in FIG. 14 and compare HSV-1 DNA polymerase and human DNA polymerase alpha activity.
as §3, §4, §5

E. coli DNA Polymerase 1 = E. coli DNA Polymerase 1 (Escherichia coli, UniProt P00582); assay: In vitro DNA synthesis by E. coli DNA polymerase 1 ([3H]dAMP incorporation); assay type: biochemical
E. coli DNA Polymerase 1, sequence (P00582 whole entry): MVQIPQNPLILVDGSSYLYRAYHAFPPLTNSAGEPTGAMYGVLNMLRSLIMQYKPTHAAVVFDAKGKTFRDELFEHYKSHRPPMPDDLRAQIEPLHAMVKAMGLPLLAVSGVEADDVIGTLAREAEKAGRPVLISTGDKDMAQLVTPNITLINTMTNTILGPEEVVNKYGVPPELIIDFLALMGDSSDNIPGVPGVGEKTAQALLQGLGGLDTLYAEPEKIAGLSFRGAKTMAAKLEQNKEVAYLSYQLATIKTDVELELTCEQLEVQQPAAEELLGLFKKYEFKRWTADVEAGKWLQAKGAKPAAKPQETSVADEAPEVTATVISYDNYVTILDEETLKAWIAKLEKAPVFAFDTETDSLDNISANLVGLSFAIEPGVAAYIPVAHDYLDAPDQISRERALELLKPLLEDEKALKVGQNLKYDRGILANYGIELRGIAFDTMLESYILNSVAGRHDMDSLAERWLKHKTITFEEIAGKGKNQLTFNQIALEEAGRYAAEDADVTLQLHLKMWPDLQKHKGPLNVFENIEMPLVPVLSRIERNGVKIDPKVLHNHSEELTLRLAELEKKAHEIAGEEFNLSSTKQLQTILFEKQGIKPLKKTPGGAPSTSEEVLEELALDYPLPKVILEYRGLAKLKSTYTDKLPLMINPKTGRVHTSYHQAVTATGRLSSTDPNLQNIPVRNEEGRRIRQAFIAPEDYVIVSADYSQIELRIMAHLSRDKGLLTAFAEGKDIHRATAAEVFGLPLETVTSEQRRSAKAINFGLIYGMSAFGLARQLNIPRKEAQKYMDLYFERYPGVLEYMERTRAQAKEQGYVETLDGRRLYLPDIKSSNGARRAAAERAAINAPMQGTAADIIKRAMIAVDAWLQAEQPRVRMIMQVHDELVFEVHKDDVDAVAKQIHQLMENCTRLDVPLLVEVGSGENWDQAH
Method: ^a Enzymatic assays were carried out with 1 unit of Sigma E. coli DNA
Polymerase 1. dTTP, dGTP and [^3 H] dATP were non limiting (5 μM).
^b Values obtained are net after subtracting "0" samples which did no
^c Amount of NMeMMdCTP used with each concentration of dCTP was 0.625

[8] = system: Nc1ccn([C@H]2C[C@H](O)[C@@H](COP(=O)(O)OP(=O)(O)OP(=O)(O)O)O2)c(=O)n1; assay: Kinetic analysis / inhibition of HSV-1 DNA polymerase; assay type: biochemical; conditions: other: dCTP
Method: as §2

[9] = Table 8, HSV-1 KOS infected Vero cells, 10 PFU/cell, treatment 7 hours, ± S.E.
[10] = Table 9, HSV-1 KOS infected, H4 dUrd pre-incubated 2 hours then removed, fresh MEM or MMdCyd
[11] = nucleotide 0.039 μM (mixture: dCTP at this concentration + N-MeMMdCTP 0.625 μM)
[12] = nucleotide 0.078 μM (mixture: dCTP at this concentration + N-MeMMdCTP 0.625 μM)
[13] = nucleotide 0.156 μM (mixture: dCTP at this concentration + N-MeMMdCTP 0.625 μM)
[14] = nucleotide 0.312 μM (mixture: dCTP at this concentration + N-MeMMdCTP 0.625 μM)
[15] = nucleotide 0.625 μM (mixture: dCTP at this concentration + N-MeMMdCTP 0.625 μM)
[16] = nucleotide 1.25 μM (mixture: dCTP at this concentration + N-MeMMdCTP 0.625 μM)
[17] = nucleotide 2.50 μM (mixture: dCTP at this concentration + N-MeMMdCTP 0.625 μM)
[18] = nucleotide 5.0 μM (mixture: dCTP at this concentration + N-MeMMdCTP 0.625 μM)

## O=C1NC(O)CCN1[C@H]1C[C@H](O)[C@@H](CO)O1 (stereo partly shown) [H4 dUrd, tetrahydro-2'-deoxyuridine]
HSV-1, KOS [1]
  antiviral activity of H4 dUrd: did not exhibit antiviral activity; also recorded: no antiviral activity
HSV-1, KOS [2]
  antiviral activity of H4 dUrd alone: did not exhibit antiviral activity
In vitro
  viability at 1000 µM: 100%
[3]; [9]
  dATP pool: 94.7 ± 2.06 .rho.moles/10^6 cells
  dCTP pool: 326 ± 12.6 .rho.moles/10^6 cells
  dGTP pool: 101.3 ± 2.28 .rho.moles/10^6 cells
  dTTP pool: 0.5 ± 0.34 .rho.moles/10^6 cells
[3]; [10]
  dATP pool: 119.4 ± 3.1 .rho.moles/10^6 cells
  dCTP pool: 312 ± 10.1 .rho.moles/10^6 cells
  dGTP pool: 141 ± 2.6 .rho.moles/10^6 cells
  dTTP pool: 2 ± 0.41 .rho.moles/10^6 cells
[4]
  dATP pool: 17.6 ± 1.28 .rho.moles/10^6 cells
  dCTP pool: 30.8 ± 1.20 .rho.moles/10^6 cells
  dGTP pool: 32 ± 1.3 .rho.moles/10^6 cells
  dTTP pool: 27.5 ± 1.25 .rho.moles/10^6 cells

## COCc1cn([C@H]2C[C@H](O)[C@@H](COP(=O)(O)OP(=O)(O)OP(=O)(O)O)O2)c(=O)nc1N [MMdCTP, 5-methoxymethyl-2'-deoxycytidine triphosphate]
HSV-1 DNA Polymerase [5]
  Ki: 380 nM
HSV-1 DNA Polymerase [5]; FIG. 16, HSV-1 compared with human DNA polymerase alpha
  inhibition of HSV-1 versus human DNA polymerase alpha: clear difference in effect
HSV-1 DNA Polymerase [5]; Km of dCTP / Ki of MMdCTP
  Km/Ki: 0.4
HSV-1 DNA Polymerase [6]; HSV-1 DNA polymerase, FIG. 14
  utilization as alternative substrate ([^3 H] dAMP incorporation): readily utilized
HSV-1 DNA Polymerase [6]; HSV-1 induced DNA polymerase
  preference as substrate versus dCTP: preferred as a substrate to dCTP
[7]; human DNA polymerase alpha, FIG. 14
  utilization as alternative substrate ([^3 H] dAMP incorporation): little used

## CNc1nc(=O)n([C@H]2C[C@H](O)[C@@H](COP(=O)(O)OP(=O)(O)OP(=O)(O)O)O2)cc1COC [N-MeMMdCTP]
E. coli DNA Polymerase 1; E. coli DNA polymerase
  interference with incorporation of dCTP into DNA: did not interfere with incorporation of dCTP into DNA
  substrate for DNA polymerase: did not serve as a substrate
E. coli DNA Polymerase 1; [11]
  cpm [^3 H]dAMP incorporated: -18 cpm
E. coli DNA Polymerase 1; [12]
  cpm [^3 H]dAMP incorporated: -7 cpm
E. coli DNA Polymerase 1; [13]
  cpm [^3 H]dAMP incorporated: 3 cpm
E. coli DNA Polymerase 1; [14]
  cpm [^3 H]dAMP incorporated: -9 cpm
E. coli DNA Polymerase 1; [15]
  cpm [^3 H]dAMP incorporated: 3 cpm
E. coli DNA Polymerase 1; [16]
  cpm [^3 H]dAMP incorporated: -20 cpm
E. coli DNA Polymerase 1; [17]
  cpm [^3 H]dAMP incorporated: -17 cpm
E. coli DNA Polymerase 1; [18]
  cpm [^3 H]dAMP incorporated: -16 cpm
HSV-1 DNA Polymerase [6]; HSV-1 DNA polymerase
  incorporation into DNA / substrate: not incorporated into DNA
[7]
  incorporation into DNA / substrate: not incorporated into DNA

## Nc1ccn([C@H]2C[C@H](O)[C@@H](COP(=O)(O)OP(=O)(O)OP(=O)(O)O)O2)c(=O)n1 [dCTP, 2'-deoxycytidine triphosphate, reference compound]
E. coli DNA Polymerase 1; [11]
  cpm [^3 H]dAMP incorporated: 35 cpm
E. coli DNA Polymerase 1; [12]
  cpm [^3 H]dAMP incorporated: 118 cpm
E. coli DNA Polymerase 1; [13]
  cpm [^3 H]dAMP incorporated: 216 cpm
E. coli DNA Polymerase 1; [14]
  cpm [^3 H]dAMP incorporated: 527 cpm
E. coli DNA Polymerase 1; [15]
  cpm [^3 H]dAMP incorporated: 1171 cpm
E. coli DNA Polymerase 1; [16]
  cpm [^3 H]dAMP incorporated: 1603 cpm
E. coli DNA Polymerase 1; [17]
  cpm [^3 H]dAMP incorporated: 1554 cpm
E. coli DNA Polymerase 1; [18]
  cpm [^3 H]dAMP incorporated: 2032 cpm
HSV-1 DNA Polymerase [6]; 10 μM dCTP, HSV-1 DNA polymerase
  [^3 H]dAMP incorporation representing 100% activity: 27355 cpm
HSV-1 DNA Polymerase [6]; HSV-1 DNA polymerase
  incorporation into DNA / substrate: excellent substrate for DNA synthesis
[7]; 10 μM dCTP, Human DNA polymerase
  [^3 H]dAMP incorporation representing 100% activity: 4059 cpm
[7]
  incorporation into DNA / substrate: excellent substrate for DNA synthesis

## HSV-1 DNA Polymerase (Human alphaherpesvirus 1 strain 17)
[8]
  Km: 0.15 µM
